Assay results from BindingDB's records for patent US20250145589 (Sichuan Huiyu Pharmaceutical, 2025).

Experiments:
[1] = molecular target: Phosphatidylinositol 4,5-bisphosphate 3-kinase catalytic subunit alpha isoform (Homo sapiens, UniProt P42336); assay: Inhibition of PI3Kalpha Efficacy assay
Experimental: (§1) The ADP-Glo™ kinase assay was used to assess the inhibition of PI3Kα with our compounds. The utilized proteins and assay reagents were obtained from the ADP-Glo™ Kinase Assay Kit (Promega). Initially, a 2 mM stock solution of the test compound (dissolved in DMSO) was serially diluted in five-fold concentrations using DMSO to obtain eight working solutions 1 (200′). Subsequently, each of the eight working solutions 1 was further diluted in a 20-fold gradient by adding 5 μL into 95 μL of ddH2O, resulting in eight working solutions 2 (10×). In a 384-well white flat-bottom plate, 2 μL of 2.5×PI3Kα kinase solution and 1 μL of working solution 2 (10×) were added to each well and mixed, followed by a 15-minute incubation at room temperature (RT). Subsequently, 2 μL of 2.5×PI and ATP solution mixture were added to each well, mixed, and incubated at RT for 60 minutes. Then, 5 μL of ADP-Glo (containing 10 mM MgCl2) reagent was added to each well, mixed, and incubated at RT for 40 minutes.Finally, 10 μL of the Kinase Detection Reagent was added to each well, mixed, and incubated at RT for 40 minutes. Luminescence values were recorded using a multi-mode microplate reader with luminescence channel settings, and the inhibitory rate was calculated using the following formula:%Inhibitionrate=[(Negative-testcompound)/(Negative-Blank)]*100Data were analyzed using GraphPad Prism with log(inhibitor) vs. response—Variable Slope(four parameters) fitting calculations for IC5 values.

[2] = molecular target: T1, Phosphatidylinositol 4,5-bisphosphate 3-kinase catalytic subunit delta isoform (Homo sapiens, UniProt O00329); assay: Inhibition of PI3Kdelta Efficacy Assay
T1 sequence (O00329 whole entry): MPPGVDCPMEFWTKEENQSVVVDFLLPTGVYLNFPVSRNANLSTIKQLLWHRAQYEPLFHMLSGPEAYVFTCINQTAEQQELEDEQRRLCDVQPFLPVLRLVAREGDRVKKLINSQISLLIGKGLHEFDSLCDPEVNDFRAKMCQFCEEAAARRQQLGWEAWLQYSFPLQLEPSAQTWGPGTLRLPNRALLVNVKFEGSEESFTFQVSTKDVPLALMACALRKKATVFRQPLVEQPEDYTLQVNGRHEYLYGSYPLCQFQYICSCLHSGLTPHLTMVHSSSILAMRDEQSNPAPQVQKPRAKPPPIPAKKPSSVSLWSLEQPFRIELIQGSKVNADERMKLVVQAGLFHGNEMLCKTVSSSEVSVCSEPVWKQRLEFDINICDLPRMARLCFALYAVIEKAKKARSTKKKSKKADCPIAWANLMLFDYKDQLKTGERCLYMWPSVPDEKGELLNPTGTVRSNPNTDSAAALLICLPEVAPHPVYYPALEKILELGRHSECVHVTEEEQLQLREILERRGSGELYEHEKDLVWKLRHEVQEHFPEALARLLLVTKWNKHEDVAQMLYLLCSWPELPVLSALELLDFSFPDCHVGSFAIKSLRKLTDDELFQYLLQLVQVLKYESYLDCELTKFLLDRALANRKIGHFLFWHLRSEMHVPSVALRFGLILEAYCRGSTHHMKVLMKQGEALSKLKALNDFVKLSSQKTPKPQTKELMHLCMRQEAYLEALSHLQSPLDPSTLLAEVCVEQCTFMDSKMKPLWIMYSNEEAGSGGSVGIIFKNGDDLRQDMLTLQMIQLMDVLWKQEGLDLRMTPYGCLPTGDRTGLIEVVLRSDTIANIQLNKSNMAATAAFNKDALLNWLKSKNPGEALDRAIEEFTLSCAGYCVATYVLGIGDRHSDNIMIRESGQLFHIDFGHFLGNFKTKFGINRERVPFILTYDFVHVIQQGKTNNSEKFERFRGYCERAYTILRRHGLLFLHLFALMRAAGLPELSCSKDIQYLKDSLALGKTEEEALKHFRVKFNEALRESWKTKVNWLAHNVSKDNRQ
Experimental: as §1, with “PI3Kδ” for “PI3Kα”, “(200×)” for “(200′).”, “2.5×PI3Kδ” for “2.5×PI3Kα”, “minutes. Finally,” for “minutes.Finally,”, “IC50” for “IC5”

[3] = molecular target: Son of sevenless homolog 1/GTPase KRas [G12C] (Homo sapiens, UniProt P01116, G12C); assay: HTRF KRASG12C/SOS1 Binding Assay
Experimental: The HTRF KRASG12C/SOS1 Binding Assay was used to measure the interaction between KRASG12C and SOS1 proteins, and evaluate the enzymatic activity of compounds against KRASG12C. The utilized proteins and assay reagents were obtained from the KRASG12C-SOS1 binding assay kits (Cisbio). Initially, a 2 mM stock solution of the test compound (dissolved in DMSO) was serially diluted in five-fold concentrations using DMSO to obtain eight working solutions 1 (200×). Subsequently, each of the eight working solutions 1 was further diluted in a 20-fold gradient by adding 5 μL into 95 μL of Diluent buffer, mixed completely with vortex mixer, resulting in eight working solutions 2 (10×). In a 384-well white flat-bottom plate, 4 μL of Tag2-KRASG12C solution, 2 μL of working solution 2 (10×) and 4 μL of Tag1-SOS1 solution were sequentially added to each well and mixed, followed by a 15-minute incubation at room temperature (RT). Subsequently, 5 μL of Anti-tag 1-Tb3+ stock solution and 5 μL of Anti-tag2-XL665 were added to each well, mixed, and incubated at 4° C. for 3 hours. […] The inhibition rate was calculated using the following formula:%Inhibitionrate= [(Rationegative-Ratiocompound)/(Rationegative-RatioBlank)]×100Data were analyzed using GraphPad Prism with log (inhibitor) vs. response-Variable Slope (four parameters) fitting calculations for IC50 values.

Son of sevenless homolog 1/GTPase KRas [G12C], sequence (P01116 whole entry G12C): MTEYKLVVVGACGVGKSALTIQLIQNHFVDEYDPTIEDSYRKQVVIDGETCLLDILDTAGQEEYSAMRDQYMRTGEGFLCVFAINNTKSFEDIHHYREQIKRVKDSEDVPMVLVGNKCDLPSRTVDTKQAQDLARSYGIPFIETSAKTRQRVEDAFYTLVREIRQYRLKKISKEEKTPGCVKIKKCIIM
Son of sevenless homolog 1/GTPase KRas [G12C], sequence (Q07889 whole entry, further chain): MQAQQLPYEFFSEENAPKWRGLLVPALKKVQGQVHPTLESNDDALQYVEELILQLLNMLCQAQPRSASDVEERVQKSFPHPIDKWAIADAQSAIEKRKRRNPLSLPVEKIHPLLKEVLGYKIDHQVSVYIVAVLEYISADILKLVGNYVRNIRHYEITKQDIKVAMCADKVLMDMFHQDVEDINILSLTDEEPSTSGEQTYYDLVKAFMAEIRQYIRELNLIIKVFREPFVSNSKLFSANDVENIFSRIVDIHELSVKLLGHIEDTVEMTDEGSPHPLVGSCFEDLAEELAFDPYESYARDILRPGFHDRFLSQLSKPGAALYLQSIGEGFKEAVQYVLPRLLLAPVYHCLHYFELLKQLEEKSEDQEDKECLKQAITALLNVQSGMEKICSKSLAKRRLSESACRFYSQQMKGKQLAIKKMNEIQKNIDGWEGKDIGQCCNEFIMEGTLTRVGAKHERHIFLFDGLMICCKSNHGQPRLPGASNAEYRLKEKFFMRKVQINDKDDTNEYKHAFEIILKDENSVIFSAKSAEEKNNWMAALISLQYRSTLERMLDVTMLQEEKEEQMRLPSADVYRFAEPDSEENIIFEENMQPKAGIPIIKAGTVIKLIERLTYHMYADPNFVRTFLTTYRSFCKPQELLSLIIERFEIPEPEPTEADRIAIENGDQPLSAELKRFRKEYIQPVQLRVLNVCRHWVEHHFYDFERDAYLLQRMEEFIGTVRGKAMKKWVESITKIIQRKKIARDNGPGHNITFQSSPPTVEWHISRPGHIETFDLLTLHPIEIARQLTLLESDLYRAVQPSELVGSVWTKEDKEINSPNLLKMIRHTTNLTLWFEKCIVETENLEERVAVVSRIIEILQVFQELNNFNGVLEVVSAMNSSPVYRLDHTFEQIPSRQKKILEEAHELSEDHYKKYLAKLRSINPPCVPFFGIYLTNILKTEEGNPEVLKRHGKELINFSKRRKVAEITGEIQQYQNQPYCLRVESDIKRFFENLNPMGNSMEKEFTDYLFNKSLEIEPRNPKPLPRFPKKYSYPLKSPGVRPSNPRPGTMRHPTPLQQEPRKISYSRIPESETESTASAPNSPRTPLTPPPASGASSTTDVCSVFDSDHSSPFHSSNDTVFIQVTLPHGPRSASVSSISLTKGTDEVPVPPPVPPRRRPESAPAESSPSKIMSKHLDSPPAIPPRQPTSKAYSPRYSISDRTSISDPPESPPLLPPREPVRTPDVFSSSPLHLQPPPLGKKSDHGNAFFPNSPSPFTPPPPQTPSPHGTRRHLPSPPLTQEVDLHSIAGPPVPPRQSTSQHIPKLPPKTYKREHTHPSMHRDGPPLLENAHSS
Phosphatidylinositol 4,5-bisphosphate 3-kinase catalytic subunit alpha isoform, sequence (P42336 whole entry, canonical isoform): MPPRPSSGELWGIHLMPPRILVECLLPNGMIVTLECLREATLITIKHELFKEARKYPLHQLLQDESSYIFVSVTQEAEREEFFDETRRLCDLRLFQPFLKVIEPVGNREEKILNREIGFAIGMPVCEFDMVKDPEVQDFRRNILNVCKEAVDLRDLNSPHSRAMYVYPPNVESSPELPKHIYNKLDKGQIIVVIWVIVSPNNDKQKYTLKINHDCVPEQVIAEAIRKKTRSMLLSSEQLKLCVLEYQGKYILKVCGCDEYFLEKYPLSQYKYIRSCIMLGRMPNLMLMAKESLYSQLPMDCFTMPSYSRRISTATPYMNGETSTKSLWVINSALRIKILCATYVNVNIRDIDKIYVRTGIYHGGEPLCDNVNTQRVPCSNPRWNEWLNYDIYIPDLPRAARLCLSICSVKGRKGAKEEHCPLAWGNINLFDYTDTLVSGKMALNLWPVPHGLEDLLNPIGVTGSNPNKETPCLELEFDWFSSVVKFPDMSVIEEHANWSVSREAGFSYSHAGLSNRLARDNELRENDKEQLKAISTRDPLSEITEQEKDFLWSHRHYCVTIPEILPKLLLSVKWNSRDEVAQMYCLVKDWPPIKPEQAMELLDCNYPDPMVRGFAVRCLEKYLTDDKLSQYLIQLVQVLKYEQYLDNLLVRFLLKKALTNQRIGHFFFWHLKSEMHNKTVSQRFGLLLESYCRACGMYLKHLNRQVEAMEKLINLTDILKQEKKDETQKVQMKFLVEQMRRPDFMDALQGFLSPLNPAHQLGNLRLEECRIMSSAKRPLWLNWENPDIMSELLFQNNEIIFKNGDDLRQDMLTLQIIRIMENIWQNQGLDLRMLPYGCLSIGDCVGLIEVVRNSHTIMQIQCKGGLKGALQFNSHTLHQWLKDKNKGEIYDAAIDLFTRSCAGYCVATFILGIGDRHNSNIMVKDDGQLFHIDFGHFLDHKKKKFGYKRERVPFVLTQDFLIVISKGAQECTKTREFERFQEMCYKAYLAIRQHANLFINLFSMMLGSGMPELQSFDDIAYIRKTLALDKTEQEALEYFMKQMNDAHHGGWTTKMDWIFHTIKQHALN

Structure (SMILES)	IC50 [1] [nM]	IC50 [2] [nM]	IC50 [3] [nM]
COc1ncc(-c2ccc3ncnc(N4CCN(C(=O)/C=C/C(C)=O)C[C@@H]4C)c3c2)cc1NS(=O)(=O)c1ccc(F)cc1F [US20250145589, Example 8]	0.34	17.9	222
C=C(F)C(=O)N1CCN(c2ncnc3ccc(-c4cnc(OC)c(N(C)S(=O)(=O)c5ccc(F)cc5F)c4)cc23)CC1 [US20250145589, Example 79]		903	
C=CS(=O)(=O)N1CCN(c2ncnc3ccc(-c4cnc(OC)c(NS(=O)(=O)c5ccc(F)cc5F)c4)cc23)CC1 [US20250145589, Example 207]	3.2		

Continued by falling IC50 [1], values first:

IC50 [1] [nM]	IC50 [2] [nM]	IC50 [3] [nM]	Structure (SMILES)
11.3	85.3	96.7	COc1ncc(-c2ccc3ncnc(N4CCC5(CN(C(=O)/C=C/C(C)=O)C5)C4)c3c2)cc1NS(=O)(=O)c1ccc(F)cc1F [US20250145589, Example 13]
2.24	13.8	159	COc1ncc(-c2ccc3ncnc(N4CCN(C(=O)/C=C/C(C)=O)CC4)c3c2)cc1SS(=O)(=O)c1ccc(F)cc1F [US20250145589, Example 246]
1.4		210	COc1ncc(-c2ccc3ncnc(N4CCN(C(=O)/C=C/C(C)=O)CC4)c3n2)cc1NS(=O)(=O)c1cnccc1C [US20250145589, Example 223]
